# Target: T1, human GPR84 receptor (Homo sapiens, UniProt Q9NQS5)
# T1 construct: frozen aliquots prepared by acCELLerate; host or cells: CHO-K1
# Assay: cAMP HTRF assay for identification of cellular GPR84 antagonists
# Format: cell-based
# Details: CHO-K1 cells stably expressing human GPR84; Forskolin + agonist 6-OAU (EC80); average or median values
# Excerpt: cAMP HTRF® Assay for Identification of Cellular GPR84 Antagonists
# By using a Homogenous Time-Resolved Fluorescence (HTRF®) based assay (#62AM5PEJ, Cisbio, Condolet, France) the inhibition of the Gi-coupled GPR84 receptor can be detected. CHO-K1 cells stably expressing human GPR84 receptor (purchased from DiscoveRx, now Eurofins) were used and treated with Forskolin (F6886, Sigma, Germany) to stimulate membrane adenylyl cyclases and thereby unspecific cAMP formation. Activation of the Gi-coupled GPR84 by a natural or small molecule agonist (e.g. 6-n-octyl aminouracile, inhouse) results in inhibition of cellular cAMP formation which can be released again by antagonists to this receptor. Detection and quantification of cellular cAMP levels in this HTRF assay is achieved by interaction between a fluorescent cAMP tracer (cAMP-d2) and an Eu-cryptate labelled anti-cAMP antibody. Following excitation at 337 nm this pairing allows for the generation of a fluorescence resonance energy transfer (FRET) between the partners and results in FRET induced emissions at 665 nm and 620 nm, the latter representing background signal by Eu-cryptate labelled anti-cAMP antibody. Maximal signal is obtained in the absence of any cellular cAMP (no competition for the binding of the tracer to the antibody). Given the combination of the Gi coupling properties of GPR84 and the competitive nature of the detection system agonist treatment should result in an increase in the HTRF signal due to lowered cAMP levels. Any signal decrease in the presence of Forskolin, agonist and compound is indicative of antagonist mediated abrogation of GPR84 signalling.
# For the assay, frozen aliquots of CHO-K1 cells expressing hGPR84 (prepared by acCELLerate, Hamburg, Germany) were thawed and a cell suspension (1.67E+06 cells/mL) in assay media (Ham's F12 Nutrient Mix, Thermo Fisher Scientific, Waltham, USA; 5% fetal calf serum, Biomol, Hamburg, Germany) containing cAMP-d2 (dilution 1:20, supplied with the kit #62AM5PEJ, Cisbio, Condolet, France) was prepared. After recovery of cells for 20 minutes at 37° C., 3 μL/well cell suspension including cAMP-d2 were added to a pre-dispensed assay plate (Greiner Bio-One, Kremsmuenster, Austria) containing 50 nl/well test compound in 100% DMSO or 100% DMSO as control. This was followed by a 30 minutes incubation step at room temperature. […] The reaction was stopped by addition of 3 μL/well lysis buffer containing cAMP Eu-Cryptate antibody (dilution 1:20) (both supplied with the kit #62AM5PEJ, Cisbio, Condolet, France). To enable complete lysis, plates were incubated for 60 minutes at room temperature before measurement in an HTRF reader, e.g. a PHERAstar (BMG Labtech, Ortenberg, Germany).
# From the fluorescence emissions at 665 nm (FRET) and at 620 nm (background signal of Eu-cryptate) the ratio (emission at 665 nm divided by emission at 620 nm×10000) was calculated and the data were normalized (reaction without test compound, only 100% DMSO=0% inhibition; all other assay components except agonist=100% inhibition). For dose response testing on the same microtiter plate, compounds were tested at 11 different concentrations in the range of 20 μM to 0.07 nM (20 μM, 5.7 μM, 1.6 μM, 0.47 μM, 0.13 μM, 38 nM, 11 nM, 3.1 nM, 0.89 nM, 0.25 and 0.07 nM; dilution series prepared before the assay at the level of the 100-fold conc. stock solutions by serial 1:3.5 dilutions in 100% DMSO) in duplicate values for each concentration. IC50 values were calculated by 4-parameter fitting using a commercial software package (Genedata Screener, Basel, Switzerland).
# Examples were tested in selected biological assays one or more times. […]
# T1 sequence (Q9NQS5 whole entry): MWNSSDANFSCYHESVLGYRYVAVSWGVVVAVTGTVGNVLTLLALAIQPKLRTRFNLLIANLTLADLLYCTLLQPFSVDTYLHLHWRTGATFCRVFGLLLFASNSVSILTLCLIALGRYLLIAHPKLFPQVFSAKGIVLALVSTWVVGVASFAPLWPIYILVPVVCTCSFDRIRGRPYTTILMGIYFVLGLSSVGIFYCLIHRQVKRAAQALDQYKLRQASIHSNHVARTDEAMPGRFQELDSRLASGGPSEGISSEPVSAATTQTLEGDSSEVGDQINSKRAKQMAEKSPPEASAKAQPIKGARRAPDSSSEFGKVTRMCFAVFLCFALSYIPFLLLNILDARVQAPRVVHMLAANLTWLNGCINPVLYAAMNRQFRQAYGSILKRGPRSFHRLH
row,Compound,IC50 [nM]
1,"Cc1c(C(=O)NC[C@@H]2COCCO2)oc2c1-c1nn(C[C@@H]3COCCO3)cc1CC2 [Example 88, N,2-bis[(2R)-1,4-dioxan-2-ylmethyl]-8-methyl-4,5-dihydro-2H-furo[2,3-g]indazole-7-carboxamide]",110
2,"Cc1c(C(=O)NC[C@@H]2COCCO2)oc2c1-c1nn(CC3CNC3)cc1CC2 [Example 159, 2-(azetidin-3-ylmethyl)-N-[(2R)-1,4-dioxan-2-ylmethyl]-8-methyl-4,5-dihydro-2H-furo[2,3-g]indazole-7-carboxamide]",1960
3,"Cc1ccc(Cn2cc3c(n2)-c2c(oc(C(=O)NC[C@@H]4CCCO4)c2C(F)(F)F)CC32CC2)cn1 [Example 213, 2′-[(6-methylpyridin-3-yl)methyl]-N-{[(2S)-oxolan-2-yl]methyl}-8′-(trifluoromethyl)-2′,5′-dihydrospiro[cyclopropane-1,4′-furo[2,3-g]indazole]-7′-carboxamide]",7
4,"Cc1c(C(=O)NC[C@@H]2CCCO2)oc2c1-c1nn(Cc3cccnc3)cc1CC2 [Example 44, 8-methyl-2-(pyridin-3-ylmethyl)-N-[(2S)-tetrahydrofuran-2-ylmethyl]-4,5-dihydro-2H-furo[2,3-g]indazole-7-carboxamide]",18
5,"Cc1c(C(=O)Nc2ccn(C)n2)oc2c1-c1nn(Cc3ccccn3)cc1CC2 [Example 40, 8-methyl-N-(1-methyl-1H-pyrazol-3-yl)-2-(pyridin-2-ylmethyl)-4,5-dihydro-2H-furo[2,3-g]indazole-7-carboxamide]",670
6,"Cc1c(C(=O)NC[C@@H]2CCCO2)oc2c1-c1nn(Cc3cncnc3)cc1CC2 [Example 85, 8-methyl-2-(pyrimidin-5-ylmethyl)-N-[(2S)-tetrahydrofuran-2-ylmethyl]-4,5-dihydro-2H-furo[2,3-g]indazole-7-carboxamide]",260
7,Cc1c(C(=O)NC[C@H]2COCCO2)oc2c1-c1nn(Cc3ccccn3)cc1C1(CCC1)C2 [Example 133],940
8,"Cc1c(C(=O)NCc2ccn(C)n2)oc2c1-c1nn(Cc3ccccn3)cc1C1(CC1)C2 [Example 123, 8′-methyl-N-[(1-methyl-1H-pyrazol-3-yl)methyl]-2′-(pyridin-2-ylmethyl)-2′,5′-dihydrospiro[cyclopropane-1,4′-furo[2,3-g]indazole]-7′-carboxamide]",120
9,"O=C(NC[C@@H]1COCCO1)c1oc2c(c1C(F)(F)F)-c1nn(Cc3ccccn3)cc1C1(CCC1)C2 [Example 273, N-[(2R)-1,4-Dioxan-2-ylmethyl]-2′-(pyridin-2-ylmethyl)-8′-(trifluormethyl)-2′,5′-dihydrospiro[cyclobutan-1,4′-furo[2,3-g]indazol]-7′-carboxamide]",9
10,Cc1c(C(=O)NCC2OCCC2(C)C)oc2c1-c1nn(Cc3ccccn3)cc1CC2 (racemic) [Example 179],6410
11,"Cc1c(C(=O)NC[C@H]2CCOC2)oc2c1-c1nn(Cc3ccccn3)cc1CC2 [Example 33-2, 8-methyl-2-(pyridin-2-ylmethyl)-N-[(3R)-tetrahydrofuran-3-ylmethyl]-4,5-dihydro-2H-furo[2,3-g]indazole-7-carboxamide]",2890
12,"Cc1c(C(=O)Nc2cccnc2)oc2c1-c1nn(Cc3ccccn3)cc1CC2 [Example 41, 8-methyl-N-(pyridin-3-yl)-2-(pyridin-2-ylmethyl)-4,5-dihydro-2H-furo[2,3-g]indazole-7-carboxamide]",5420
13,"Cc1c(C(=O)NC[C@@H]2COCCO2)oc2c1-c1nn(C[C@@H]3CN(C)CCO3)cc1CC2 [Example 104, N[(2R)-1,4-dioxan-2-ylmethyl]-8-methyl-2-{[(2S)-4-methylmorpholin-2-yl]methyl}-4,5-dihydro-2H-furo[2,3-g]indazole-7-carboxamide]",180
14,"Cc1c(C(=O)NCCN2CCN(c3cccc(C(F)(F)F)c3)CC2)oc2c1-c1nn(Cc3ccccn3)cc1CC2 [Example 13, 8-methyl-2-(pyridin-2-ylmethyl)-N-(2-{4-[3-(trifluoromethyl)phenyl]piperazin-1yl}ethyl)-4,5-dihydro-2H-furo[2,3-g]indazole-7-carboxamide]",1650
15,"Cc1c(C(=O)NC[C@@H]2CCCO2)oc2c1-c1nn(C[C@H]3CCCO3)cc1CC2 [Example 105, 8-methyl-2-{[(2R)-tetrahydrofuran-2-yl]methyl]-N-[(2S)-tetrahydrofuran-2-ylmethyl]-4,5-dihydro-2H-furo[2,3-g]indazole-7-carboxamide]",72
16,"Cc1c(C(=O)NCc2ncco2)oc2c1-c1nn(C[C@H]3COCCO3)cc1C1(CC1)C2 [Example 128, 2′-[(2S)-1,4-dioxan-2-ylmethyl]-8′-methyl-N-(1,3-oxazol-2-ylmethyl)-2′,5′-dihydrospiro[cyclopropane-1,4′-furo[2,3-g]indazole]-7′-carboxamide]",110
17,"COCC(=O)N1CCC(Cn2cc3c(n2)-c2c(oc(C(=O)NC[C@@H]4CCCO4)c2C(F)(F)F)CC3)CC1 [Example 284, 2-{[1-(methoxyacetyl)piperidin-4-yl]methyl}-N-{[(2S)-oxolan-2-yl]methyl}-8-(trifluoromethyl)-4,5-dihydro-2H-furo[2,3-g]indazole-7-carboxamide]",86

# More lines, in order of falling IC50, values ahead:
row,IC50 [nM],Compound
1,1530,"Cc1c(C(=O)NCCc2ccccc2)oc2c1-c1nn(Cc3ccccn3)cc1CC2 [Example 42, 8-methyl-N-(2-phenylethyl)-2-(pyridin-2-ylmethyl)-4,5-dihydro-2H-furo[2,3-g]indazole-7-carboxamide]"
2,607,"Cc1c(C(=O)NC[C@@H]2CCCO2)oc2c1-c1nn(C[C@H]3COCCO3)cc1C(C(F)(F)F)C2 (mixture of isomers) [Example 266, (4±)-2-{[(2S)-1,4-dioxan-2-yl]methyl}-8-methyl-N-{[(2S)-oxolan-2-yl]methyl}-4-(trifluoromethyl)-4,5-dihydro-2H-furo[2,3-g]indazole-7-carboxamide]"
3,300,"Cc1c(C(=O)NCc2ccccn2)oc2c1-c1nn(Cc3ccccn3)cc1CC2 [Example 21, 8-methyl-N,2-bis(pyridin-2-ylmethyl)-4,5-dihydro-2H-furo[2,3-g]indazole-7-carboxamide]"
4,197,"O=C(NC[C@@H]1COCCO1)c1oc2c(c1C(F)(F)F)-c1nn(CC3CCN(CC4CC4)CC3)cc1CC2 [Example 310, 2-{[1-(cyclopropylmethyl)piperidin-4-yl]methyl}-N-{[(2R)-1,4-dioxan-2-yl]methyl}-8-(trifluoromethyl)-4,5-dihydro-2H-furo[2,3-g]indazole-7-carboxamide]"
5,145,"Cc1c(C(=O)NC[C@@H]2COCCO2)oc2c1-c1nn(C[C@H]3COCCO3)cc1C(C)C2 (mixture of isomers) [Example 248, (4±)-N-{[(2R)-1,4-dioxan-2-yl]methyl}-2-{[(2S)-1,4-dioxan-2-yl]methyl}-4,8-dimethyl-4,5-dihydro-2H-furo[2,3-g]indazole-7-carboxamide]"
6,57,"Cc1cc(Cn2cc3c(n2)-c2c(oc(C(=O)NC[C@@H]4COCCO4)c2C)CC3)ccn1 [Example 80, N-[(2R)-1,4-dioxan-2ylmethyl]-8-methyl-2-[(2-methylpyridin-4-yl)methyl]-4,5-dihydro-2H-furo[2,3-g]indazole-7-carboxamide]"
7,27,"Cc1c(C(=O)NC[C@@H]2CCCO2)oc2c1-c1nn(Cc3ncccc3Cl)cc1CC2 [Example 60, 2-[(3-chloropyridin-2-yl)methyl]-8-methyl-N-[(2S)-tetrahydrofuran-2-ylmethyl]-4,5-dihydro-2H-furo[2,3-g]indazole-7-carboxamide]"

# Reference: US12570666B2, “Furoindazole derivatives” (Bayer Aktiengesellschaft, priority 2019, dated 2026)
